Structures are written as SMILES. pKi: −log10 of the molar value. *1 amine or outer side, *2 acyl side, *3 side chain or, on linkers, in order; H or OH if unused. Where a SMILES comes first, the peptide text is derived from it. Side-chain parts run from the residue outwards. The star is where a group is joined. C18 diacid = O=C(O)CCCCCCCCCCCCCCCCC(=O)*; γGlu = O=C(O)[C@H](CCC(=O)[*:2])N[*:1]; Isovaleryl = CC(C)CC(=O)*; AEEA = NCCOCCOCC(=O)O

In patent publication US12559529B2, “NPY2 receptor agonists” (Boehringer Ingelheim International GmbH, priority 2019, dated 2026) one finds Ki data, which are given here for five compounds.

This experiment deals with T1, Human Neuropeptide Y2 Receptor (Homo sapiens, UniProt P49146).
T1 construct: purchased CHEMICON HTS066M
T1 sequence (P49146 1-381): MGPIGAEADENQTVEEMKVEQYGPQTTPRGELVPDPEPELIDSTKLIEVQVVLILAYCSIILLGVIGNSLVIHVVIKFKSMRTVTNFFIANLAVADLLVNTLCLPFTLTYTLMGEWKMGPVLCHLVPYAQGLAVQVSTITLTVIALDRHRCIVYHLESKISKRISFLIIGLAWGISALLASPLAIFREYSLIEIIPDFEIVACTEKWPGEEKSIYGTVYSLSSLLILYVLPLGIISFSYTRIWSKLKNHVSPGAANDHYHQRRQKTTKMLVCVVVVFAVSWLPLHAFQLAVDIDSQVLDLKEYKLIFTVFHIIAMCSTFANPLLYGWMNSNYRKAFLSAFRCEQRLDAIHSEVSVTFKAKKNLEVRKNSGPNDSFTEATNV
Nature of the experiment: Radioligand binding competition assay (RLB). The conditions noted are these: Table 3; human 125I-PYY (1-36) 0.02 nM, Y2 receptor membranes; read-out: Ki. In short, it runs like this:
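Competition binding at commercial human NPY Y2 membrane preparations, 0.5 μg protein per well, 2 h incubation at room temperature. Bound and free ligand were separated on GF/C filters and counted; IC50 was fitted by nonlinear regression.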

As to `CC(C)CC(=O)N[C@@H](C)C(=O)N1CCC[C@H]1C(=O)N[C@@H](CCC(=O)O)C(=O)N[C@@H](CCCCNC(=O)COCCOCCNC(=O)COCCOCCNC(=O)CC[C@H](NC(=O)CCCCCCCCCCCCCCCCC(=O)O)C(=O)O)C(=O)N1CCC[C@H]1C(=O)N[C@@H](CCC(=O)O)C(=O)N[C@@H](C)C(=O)N[C@@H](CC(=O)O)C(=O)N[C@@H](C)C(=O)N[C@@H](CO)C(=O)N1CCC[C@H]1C(=O)N[C@@H](CCC(=O)O)C(=O)N[C@@H](CCC(=O)O)C(=O)N[C@@H](CC(C)C)C(=O)N[C@@H](CCC(N)=O)C(=O)N[C@@H](CCCNC(=N)N)C(=O)N[C@@H](Cc1ccc(O)cc1)C(=O)N[C@@H](CCC(=O)O)C(=O)N[C@H](C(=O)N[C@@H](CO)C(=O)N[C@@H](CC(C)C)C(=O)N[C@@H](CCCNC(=N)N)C(=O)N[C@@H](Cc1c[nH]cn1)C(=O)N[C@@H](Cc1ccc(O)cc1)C(=O)N[C@@H](Cc1ccc(O)cc1)C(=O)N[C@@H](CC(N)=O)C(=O)N[C@@H](Cc1c[nH]c2ccccc12)C(=O)N[C@@H](CC(C)C)C(=O)N[C@H](C(=O)N[C@@H](CCCNC(=N)N)C(=O)N[C@@H](CCC(N)=O)C(=O)N[C@@H](CCCNC(=N)N)C(=O)N[C@@H](Cc1ccc(O)cc1)C(N)=O)[C@@H](C)O)C(C)C` [Compound 86, N{alpha-4}-(3-methylbutanoyl)-N{epsilon-7}-[2-(2-{2-[2-(2-{2-[(4S)-4-carboxy-4-(17-carboxyheptadecanamido)butanamido]ethoxy}ethoxy)acetamido]ethoxy}ethoxy)acetamido]-[4A,7K,9E,10A,18Q,21E,22V,28Y,30W,31L]hPYY (4-36)] (Isovaleryl-APEK([AEEA-AEEA-γGlu-C18 diacid])PEADASPEELQRYEVSLRHYYNWLTRQRY-NH2), the pKi is 8.92.

For `CC(C)CC(=O)N[C@@H](C)C(=O)N1CCC[C@H]1C(=O)N[C@@H](CCC(=O)O)C(=O)N[C@@H](CCCCNC(=O)COCCOCCNC(=O)COCCOCCNC(=O)CC[C@H](NC(=O)CCCCCCCCCCCCCCCCC(=O)O)C(=O)O)C(=O)N1CCC[C@H]1C(=O)N[C@@H](CCC(=O)O)C(=O)N[C@@H](CCC(=O)O)C(=O)N[C@@H](CC(=O)O)C(=O)N[C@@H](CO)C(=O)N[C@@H](CO)C(=O)N1CCC[C@H]1C(=O)N[C@@H](C)C(=O)N[C@@H](CCC(=O)O)C(=O)N[C@@H](CC(C)C)C(=O)N[C@@H](CCC(N)=O)C(=O)N[C@@H](CCCNC(=N)N)C(=O)N[C@@H](Cc1ccc(O)cc1)C(=O)N[C@@H](Cc1ccc(O)cc1)C(=O)N[C@H](C(=O)N[C@@H](CO)C(=O)N[C@@H](CC(C)C)C(=O)N[C@@H](CCCNC(=N)N)C(=O)N[C@@H](Cc1c[nH]cn1)C(=O)N[C@@H](Cc1ccc(O)cc1)C(=O)N[C@@H](Cc1ccc(O)cc1)C(=O)N[C@@H](CC(N)=O)C(=O)N[C@@H](Cc1c[nH]c2ccccc12)C(=O)N[C@@H](CC(C)C)C(=O)N[C@H](C(=O)N[C@@H](CCCNC(=N)N)C(=O)N[C@@H](CCC(N)=O)C(=O)N[C@@H](CCCNC(=N)N)C(=O)N[C@@H](Cc1ccc(O)cc1)C(N)=O)[C@@H](C)O)C(C)C` [Compound 87, N{alpha-4}-(3-methylbutanoyl)-N{epsilon-7}-[2-(2-{2-[2-(2-{2-[(4S)-4-carboxy-4-(17-carboxyheptadecanamido)butanamido]ethoxy}ethoxy)acetamido]ethoxy}ethoxy)acetamido]-[4A,7K,9E,12S,15A,18Q,22V,28Y,30W,31L]hPYY (4-36)] (Isovaleryl-APEK([AEEA-AEEA-γGlu-C18 diacid])PEEDSSPAELQRYYVSLRHYYNWLTRQRY-NH2), the pKi is 8.71.

With `CC(C)CC(=O)N[C@@H](C)C(=O)N1CCC[C@H]1C(=O)N[C@@H](CCC(=O)O)C(=O)N[C@@H](CCCCNC(=O)COCCOCCNC(=O)COCCOCCNC(=O)CC[C@H](NC(=O)CCCCCCCCCCCCCCCCC(=O)O)C(=O)O)C(=O)N1CCC[C@H]1C(=O)N[C@@H](CCC(=O)O)C(=O)N[C@@H](CCC(=O)O)C(=O)N[C@@H](CCC(=O)O)C(=O)N[C@@H](C)C(=O)N[C@@H](CCC(=O)O)C(=O)N1CCC[C@H]1C(=O)N[C@@H](CCC(=O)O)C(=O)N[C@@H](CCC(=O)O)C(=O)N[C@@H](CC(C)C)C(=O)N[C@@H](CCC(N)=O)C(=O)N[C@@H](CCCNC(=N)N)C(=O)N[C@@H](Cc1ccc(O)cc1)C(=O)N[C@@H](Cc1ccc(O)cc1)C(=O)N[C@H](C(=O)N[C@@H](CO)C(=O)N[C@@H](CC(C)C)C(=O)N[C@@H](CCCNC(=N)N)C(=O)N[C@@H](Cc1c[nH]cn1)C(=O)N[C@@H](Cc1ccc(O)cc1)C(=O)N[C@@H](Cc1ccc(O)cc1)C(=O)N[C@@H](CC(N)=O)C(=O)N[C@@H](Cc1c[nH]c2ccccc12)C(=O)N[C@@H](CC(C)C)C(=O)N[C@H](C(=O)N[C@@H](CCCNC(=N)N)C(=O)N[C@@H](CCC(N)=O)C(=O)N[C@@H](CCCNC(=N)N)C(=O)N[C@@H](Cc1ccc(O)cc1)C(N)=O)[C@@H](C)O)C(C)C` [Compound 89, N{alpha-4}-(3-methylbutanoyl)-N{epsilon-7}-[2-(2-{2-[2-(2-{2-[(4S)-4-carboxy-4-(17-carboxyheptadecanamido)butanamido]ethoxy}ethoxy)acetamido]ethoxy}ethoxy)acetamido]-[4A,7K,9E,11E,13E,18Q,22V,28Y,30W,31L]hPYY (4-36)], the pKi is 8.02.

With `CC(C)CC(=O)N[C@@H](C)C(=O)N1CCC[C@H]1C(=O)N[C@@H](CCC(=O)O)C(=O)N[C@@H](CCCCNC(=O)COCCOCCNC(=O)COCCOCCNC(=O)CC[C@H](NC(=O)CCCCCCCCCCCCCCCCC(=O)O)C(=O)O)C(=O)N1CCC[C@H]1C(=O)N[C@@H](CCC(=O)O)C(=O)N[C@@H](CCC(=O)O)C(=O)N[C@@H](CC(=O)O)C(=O)N[C@H](C(=O)N[C@@H](CO)C(=O)N1CCC[C@H]1C(=O)N[C@@H](CCC(=O)O)C(=O)N[C@@H](CCC(=O)O)C(=O)N[C@@H](CC(C)C)C(=O)N[C@@H](CCC(N)=O)C(=O)N[C@@H](CCCNC(=N)N)C(=O)N[C@@H](Cc1ccc(O)cc1)C(=O)N[C@@H](Cc1ccc(O)cc1)C(=O)N[C@H](C(=O)N[C@@H](CO)C(=O)N[C@@H](CC(C)C)C(=O)N[C@@H](CCCNC(=N)N)C(=O)N[C@@H](Cc1c[nH]cn1)C(=O)N[C@@H](Cc1ccc(O)cc1)C(=O)N[C@@H](Cc1ccc(O)cc1)C(=O)N[C@@H](CC(N)=O)C(=O)N[C@@H](Cc1c[nH]c2ccccc12)C(=O)N[C@@H](CC(C)C)C(=O)N[C@H](C(=O)N[C@@H](CCCNC(=N)N)C(=O)N[C@@H](CCC(N)=O)C(=O)N[C@@H](CCCNC(=N)N)C(=O)N[C@@H](Cc1ccc(O)cc1)C(N)=O)[C@@H](C)O)C(C)C)[C@@H](C)O` [Compound 92, N{alpha-4}-(3-methylbutanoyl)-N{epsilon-7}-[2-(2-{2-[2-(2-{2-[(4S)-4-carboxy-4-(17-carboxyheptadecanamido)butanamido]ethoxy}ethoxy)acetamido]ethoxy}ethoxy)acetamido]-[4A,7K,9E,12T,18Q,22V,28Y,30W,31L]hPYY (4-36)], the pKi was 8.80.

In the case of `CC(C)CC(=O)N[C@@H](C)C(=O)N1CCC[C@H]1C(=O)N[C@@H](CCC(=O)O)C(=O)N[C@@H](CCCCNC(=O)COCCOCCNC(=O)COCCOCCNC(=O)CC[C@H](NC(=O)CCCCCCCCCCCCCCCCC(=O)O)C(=O)O)C(=O)N1CCC[C@H]1C(=O)N[C@@H](CCC(=O)O)C(=O)N[C@@H](CCC(=O)O)C(=O)N[C@@H](CC(=O)O)C(=O)N[C@@H](C)C(=O)N[C@@H](CO)C(=O)N1CCC[C@H]1C(=O)N[C@@H](CCC(=O)O)C(=O)N[C@@H](CCC(=O)O)C(=O)N[C@H](C(=O)N[C@@H](CCC(N)=O)C(=O)N[C@@H](CCCNC(=N)N)C(=O)N[C@@H](Cc1ccc(O)cc1)C(=O)N[C@@H](Cc1ccc(O)cc1)C(=O)N[C@H](C(=O)N[C@@H](CCC(=O)O)C(=O)N[C@@H](CC(C)C)C(=O)N[C@@H](CCCNC(=N)N)C(=O)N[C@@H](Cc1c[nH]cn1)C(=O)N[C@@H](Cc1ccc(O)cc1)C(=O)N[C@@H](Cc1ccc(O)cc1)C(=O)N[C@@H](CC(N)=O)C(=O)N[C@@H](Cc1c[nH]c2ccccc12)C(=O)N[C@@H](CC(C)C)C(=O)N[C@H](C(=O)N[C@@H](CCCNC(=N)N)C(=O)N[C@@H](CCC(N)=O)C(=O)N[C@@H](CCCNC(=N)N)C(=O)N[C@@H](Cc1ccc(O)cc1)C(N)=O)[C@@H](C)O)C(C)C)[C@@H](C)O` [Compound 94, N{alpha-4}-(3-methylbutanoyl)-N{epsilon-7}-[2-(2-{2-[2-(2-{2-[(4S)-4-carboxy-4-(17-carboxyheptadecanamido)butanamido]ethoxy}ethoxy)acetamido]ethoxy}ethoxy)acetamido]-[4A,7K,9E,17T,18Q,22V,23E,28Y,30W,31L]hPYY (4-36)], the pKi was 8.68.

The pKi is the Ki on a negative log10 scale, so that one unit is a factor of ten.
